{"source": "patent US5045566A", "about": "“Novel imidate insecticides” (ICI Americas Inc., priority 1989, dated 1991)", "assay_type_in_all_cases": "in vivo", "key": {"[1]": {"system": "Maize weevil [Sitophilus zeamais (Motschulsky)]", "test": "Maize weevil on dipped corn seeds (MW), 48 hours", "conditions": "percent in solution, adult weevils", "summary_of_the_method": "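LC50, given as percent of compound in dipping solution, comes from dosage-mortality curves over concentrations descending from 0.01%. Four corn seeds soaked 2-3 s in 50:50 acetone:water solution were dried and held with 10 adult weevils, about 25° C, mortality read after 48 h.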"}, "[2]": {"system": "Aster Leafhopper [Macrosteles fascifrens (Stal)]", "test": "Aster leafhopper on dipped oat seedlings (LH), 48 hours", "conditions": "percent in solution, adults/nymphs", "summary_of_the_method": "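Three ~10 cm oat seedlings per cup were dipped 2-3 seconds in 50-50 acetone-water compound solutions, dried, and caged with ten adult/nymph leafhoppers. Mortality was counted after 48 hours at concentrations from 0.05% downward. LC50, as percent compound in solution, came from dosage-mortality curves.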"}, "[3]": {"system": "Cabbage Looper [Trichoplusia ni (Hubner)]", "test": "Cabbage looper leaf dip (CL), 3-5 days", "conditions": "percent in solution, second-instar larvae", "summary_of_the_method": "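Compounds in 50-50 acetone-water were applied by dipping squash cotyledons (about 1×1.5 in) for 2-3 s; dried leaves went into petri dishes on moist filter paper with 5 second-instar larvae under high humidity. Mortality was scored after 3-5 days; LC50 from dosage-mortality curves, as percent compound in solution.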"}, "[4]": {"system": "Tobacco Budworm [Heliothis virescens (Fabricius)] eggs", "test": "Tobacco budworm eggs (TBW-E)", "conditions": "percent in solution; 2-day old eggs", "summary_of_the_method": "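Paper towel patches bearing 2-day old eggs were dipped in acetone solutions of compound, then set in petri dishes over larval rearing medium at 78° F. Mortality was scored once all control eggs had hatched and larvae were feeding. LC50, from dosage-mortality curves, is given as percent compound in solution.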"}, "[5]": {"system": "Housefly [Musca domestica]", "test": "Housefly contact mortality in dishes (HF), 48 hours", "conditions": "μg of test compound per 25 female flies", "summary_of_the_method": "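Dose range started at 100 μg per 25 female flies and went downward. Insects (1-2 days old) contacted a dried acetone/peanut-oil deposit in dishes; LC50 values come from dosage-mortality curves at 48 h.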"}, "[6]": {"system": "Black Bean Aphid [Aphis fabae (Scop.)]", "test": "Black bean aphid spray test on nasturtium (BBA), 48 hours", "conditions": "percent of test compound in sprayed solution", "summary_of_the_method": "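LC50, given as percent test compound in the sprayed liquid, was calculated from dosage-mortality curves using concentrations from 0.05% downward. Sprays in 50:50 acetone-water went to runoff on ~5 cm nasturtiums carrying 25-50 aphids of mixed ages, one day after infestation. Deaths were counted 48 h later under greenhouse conditions.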"}}}
{"smiles": "CC(C)C(=Nc1ccc(F)c([N+](=O)[O-])c1)OCc1cccc(Oc2ccccc2)c1", "note": "[Compound 293]", "values": [{"measurement": "LC50 MW", "setting": "[1]", "value": "> 0.01", "unit": "%"}, {"measurement": "LC50 LH", "setting": "[2]", "value": "> 0.05", "unit": "%"}, {"measurement": "LC50 CL", "setting": "[3]", "value": 0.0045, "unit": "%"}, {"measurement": "LC50 TBW E (eggs)", "setting": "[4]", "value": "> 0.1", "unit": "%"}, {"measurement": "LC50 HF", "setting": "[5]", "value": 19, "unit": "µg"}, {"measurement": "LC50 BBA", "setting": "[6]", "value": "> 0.05", "unit": "%"}]}
{"smiles": "CC(C)(F)C(=Nc1ccc(F)c(Cl)c1)OCc1cccc(Oc2ccc(F)cc2F)c1", "note": "[Compound 315]", "values": [{"measurement": "LC50 MW", "setting": "[1]", "value": "> 0.01", "unit": "%"}, {"measurement": "LC50 LH", "setting": "[2]", "value": "> 0.05", "unit": "%"}, {"measurement": "LC50 CL", "setting": "[3]", "value": 0.002, "unit": "%"}, {"measurement": "LC50 TBW E (eggs)", "setting": "[4]", "value": "> 0.1", "unit": "%"}, {"measurement": "LC50 HF", "setting": "[5]", "value": "> 100", "unit": "µg"}, {"measurement": "LC50 BBA", "setting": "[6]", "value": "> 0.05", "unit": "%"}]}
{"smiles": "CC(C)(F)C(=Nc1ccc(F)c(Cl)c1)OCc1cc(Oc2ccc(F)cc2)ccc1F", "note": "[Compound 316]", "values": [{"measurement": "LC50 MW", "setting": "[1]", "value": "> 0.01", "unit": "%"}, {"measurement": "LC50 LH", "setting": "[2]", "value": "> 0.05", "unit": "%"}, {"measurement": "LC50 CL", "setting": "[3]", "value": 0.0015, "unit": "%"}, {"measurement": "LC50 TBW E (eggs)", "setting": "[4]", "value": "> 0.1", "unit": "%"}, {"measurement": "LC50 HF", "setting": "[5]", "value": 100, "unit": "µg"}, {"measurement": "LC50 BBA", "setting": "[6]", "value": "> 0.05", "unit": "%"}]}
{"smiles": "CC(C)C(=Nc1cccc(C(C)(C)C)c1)OCc1cccc(Oc2ccc(F)cc2)c1", "note": "[Compound 350]", "values": [{"measurement": "LC50 MW", "setting": "[1]", "value": "> 0.01", "unit": "%"}, {"measurement": "LC50 LH", "setting": "[2]", "value": "> 0.05", "unit": "%"}, {"measurement": "LC50 CL", "setting": "[3]", "value": 0.0045, "unit": "%"}, {"measurement": "LC50 TBW E (eggs)", "setting": "[4]", "value": "> 0.1", "unit": "%"}, {"measurement": "LC50 HF", "setting": "[5]", "value": "> 100", "unit": "µg"}, {"measurement": "LC50 BBA", "setting": "[6]", "value": "> 0.05", "unit": "%"}]}
{"smiles": "CC(C)C(=Nc1ccc(Br)cc1F)OCc1cccc(Oc2ccc(F)cc2)c1", "note": "[Compound 351]", "values": [{"measurement": "LC50 MW", "setting": "[1]", "value": "> 0.01", "unit": "%"}, {"measurement": "LC50 LH", "setting": "[2]", "value": "> 0.05", "unit": "%"}, {"measurement": "LC50 CL", "setting": "[3]", "value": 0.0007, "unit": "%"}, {"measurement": "LC50 TBW E (eggs)", "setting": "[4]", "value": "> 0.1", "unit": "%"}, {"measurement": "LC50 HF", "setting": "[5]", "value": 26, "unit": "µg"}, {"measurement": "LC50 BBA", "setting": "[6]", "value": 0.001, "unit": "%"}]}
{"smiles": "CSc1ccc(N=C(OCc2ccc(F)c(Oc3ccccc3)c2)C(C)C)cc1", "note": "[Compound 353]", "values": [{"measurement": "LC50 MW", "setting": "[1]", "value": "> 0.01", "unit": "%"}, {"measurement": "LC50 LH", "setting": "[2]", "value": "> 0.05", "unit": "%"}, {"measurement": "LC50 CL", "setting": "[3]", "value": "> 0.1", "unit": "%"}, {"measurement": "LC50 TBW E (eggs)", "setting": "[4]", "value": "> 0.1", "unit": "%"}, {"measurement": "LC50 HF", "setting": "[5]", "value": "< 100", "unit": "µg"}, {"measurement": "LC50 BBA", "setting": "[6]", "value": 0.001, "unit": "%"}]}
{"smiles": "Cc1ccc(N=C(OCc2ccc(F)c(Oc3ccccc3)c2)C(C)C)cc1F", "note": "[Compound 354]", "values": [{"measurement": "LC50 MW", "setting": "[1]", "value": 0.0068, "unit": "%"}, {"measurement": "LC50 LH", "setting": "[2]", "value": "< 0.05", "unit": "%"}, {"measurement": "LC50 CL", "setting": "[3]", "value": "> 0.1", "unit": "%"}, {"measurement": "LC50 TBW E (eggs)", "setting": "[4]", "value": 0.018, "unit": "%"}, {"measurement": "LC50 HF", "setting": "[5]", "value": "< 100", "unit": "µg"}, {"measurement": "LC50 BBA", "setting": "[6]", "value": 0.001, "unit": "%"}]}
{"smiles": "Cc1ccc(N=C(OCc2ccc(F)c(Oc3ccc(F)cc3)c2)C(C)C)cc1F", "note": "[Compound 355]", "values": [{"measurement": "LC50 MW", "setting": "[1]", "value": "> 0.01", "unit": "%"}, {"measurement": "LC50 LH", "setting": "[2]", "value": "< 0.05", "unit": "%"}, {"measurement": "LC50 CL", "setting": "[3]", "value": "> 0.1", "unit": "%"}, {"measurement": "LC50 TBW E (eggs)", "setting": "[4]", "value": "> 0.1", "unit": "%"}, {"measurement": "LC50 HF", "setting": "[5]", "value": "< 100", "unit": "µg"}, {"measurement": "LC50 BBA", "setting": "[6]", "value": 0.0006, "unit": "%"}]}
{"smiles": "Cc1ccc(N=C(OCc2ccc(F)c(Oc3ccccc3)c2)C(C)C)cc1Cl", "note": "[Compound 356]", "values": [{"measurement": "LC50 MW", "setting": "[1]", "value": "> 0.01", "unit": "%"}, {"measurement": "LC50 LH", "setting": "[2]", "value": "< 0.05", "unit": "%"}, {"measurement": "LC50 CL", "setting": "[3]", "value": "> 0.1", "unit": "%"}, {"measurement": "LC50 TBW E (eggs)", "setting": "[4]", "value": 0.025, "unit": "%"}, {"measurement": "LC50 HF", "setting": "[5]", "value": "< 100", "unit": "µg"}, {"measurement": "LC50 BBA", "setting": "[6]", "value": 0.001, "unit": "%"}]}
{"smiles": "Cc1ccc(N=C(OCc2ccc(F)c(Oc3ccc(F)cc3)c2)C(C)C)cc1Cl", "note": "[Compound 357]", "values": [{"measurement": "LC50 MW", "setting": "[1]", "value": 0.01, "unit": "%"}, {"measurement": "LC50 LH", "setting": "[2]", "value": "< 0.05", "unit": "%"}, {"measurement": "LC50 CL", "setting": "[3]", "value": "> 0.1", "unit": "%"}, {"measurement": "LC50 TBW E (eggs)", "setting": "[4]", "value": "> 0.1", "unit": "%"}, {"measurement": "LC50 HF", "setting": "[5]", "value": "< 100", "unit": "µg"}, {"measurement": "LC50 BBA", "setting": "[6]", "value": 0.0003, "unit": "%"}]}
{"smiles": "Cc1cc(N=C(OCc2ccc(F)c(Oc3ccccc3)c2)C(C)C)ccc1Br", "note": "[Compound 358]", "values": [{"measurement": "LC50 MW", "setting": "[1]", "value": "> 0.01", "unit": "%"}, {"measurement": "LC50 LH", "setting": "[2]", "value": "< 0.05", "unit": "%"}, {"measurement": "LC50 CL", "setting": "[3]", "value": "> 0.1", "unit": "%"}, {"measurement": "LC50 TBW E (eggs)", "setting": "[4]", "value": "> 0.1", "unit": "%"}, {"measurement": "LC50 HF", "setting": "[5]", "value": "< 100", "unit": "µg"}, {"measurement": "LC50 BBA", "setting": "[6]", "value": 0.0003, "unit": "%"}]}
{"smiles": "Cc1cc(N=C(OCc2ccc(F)c(Oc3ccc(F)cc3)c2)C(C)C)ccc1Br", "note": "[Compound 359]", "values": [{"measurement": "LC50 MW", "setting": "[1]", "value": "> 0.01", "unit": "%"}, {"measurement": "LC50 LH", "setting": "[2]", "value": 0.05, "unit": "%"}, {"measurement": "LC50 CL", "setting": "[3]", "value": "> 0.1", "unit": "%"}, {"measurement": "LC50 TBW E (eggs)", "setting": "[4]", "value": 0.023, "unit": "%"}, {"measurement": "LC50 HF", "setting": "[5]", "value": "< 100", "unit": "µg"}, {"measurement": "LC50 BBA", "setting": "[6]", "value": 0.0006, "unit": "%"}]}
{"smiles": "CCc1ccc(N=C(OCc2ccc(F)c(Oc3ccccc3)c2)C(C)C)cc1", "note": "[Compound 360]", "values": [{"measurement": "LC50 MW", "setting": "[1]", "value": "> 0.01", "unit": "%"}, {"measurement": "LC50 LH", "setting": "[2]", "value": "< 0.05", "unit": "%"}, {"measurement": "LC50 CL", "setting": "[3]", "value": 0.006, "unit": "%"}, {"measurement": "LC50 TBW E (eggs)", "setting": "[4]", "value": "> 0.1", "unit": "%"}, {"measurement": "LC50 HF", "setting": "[5]", "value": "< 100", "unit": "µg"}, {"measurement": "LC50 BBA", "setting": "[6]", "value": 0.0006, "unit": "%"}]}
{"smiles": "CCc1ccc(N=C(OCc2ccc(F)c(Oc3ccc(F)cc3)c2)C(C)C)cc1", "note": "[Compound 361]", "values": [{"measurement": "LC50 MW", "setting": "[1]", "value": "> 0.01", "unit": "%"}, {"measurement": "LC50 LH", "setting": "[2]", "value": "< 0.05", "unit": "%"}, {"measurement": "LC50 CL", "setting": "[3]", "value": 0.001, "unit": "%"}, {"measurement": "LC50 TBW E (eggs)", "setting": "[4]", "value": 0.04, "unit": "%"}, {"measurement": "LC50 HF", "setting": "[5]", "value": "< 100", "unit": "µg"}, {"measurement": "LC50 BBA", "setting": "[6]", "value": 0.0003, "unit": "%"}]}
